According to ChEMBL document CHEMBL3526091, “Pharmacokinetics, metabolism, and excretion of the glycogen synthase kinase-3 inhibitor LY2090314 in rats, dogs, and humans: a case study in rapid clearance by extensive metabolism with low circulating metabolite exposure” (Drug Metab Dispos, 2013):
Values belong to the compound of their own block, whether it stands above or below them.

Columns and labels:
Details in all cases: in vivo
[1] = Drug recovery in bile duct-cannulated Sprague-Dawley rat assessed as radioactivity in bile during 0 to 12 hrs treated with 5 mg/kg, iv LY2090314 for 30 mins; format: ADME, organism-based; parameters: dose 5 mg/kg, dosed compound name [14C]LY2090314, route intravenous
[2] = Drug recovery in po dosed mouse feces; format: ADME, organism-based; parameters: dosed compound name Ruboxistaurin
[3] = Drug recovery in po dosed rat feces; format: ADME, organism-based; parameters: dosed compound name Ruboxistaurin
[4] = Drug recovery in po dosed dog feces; format: ADME, organism-based, Canis lupus familiaris; parameters: dosed compound name Ruboxistaurin
[5] = Drug recovery in po dosed human feces; format: ADME, organism-based; parameters: dosed compound name Ruboxistaurin
[6] = Drug recovery in po dosed mouse urine; format: ADME, organism-based; parameters: dosed compound name Ruboxistaurin
[7] = Drug recovery in po dosed rat urine; format: ADME, organism-based; parameters: dosed compound name Ruboxistaurin
[8] = Drug recovery in po dosed dog urine; format: ADME, organism-based, Canis lupus familiaris; parameters: dosed compound name Ruboxistaurin
[9] = Drug recovery in po dosed human urine; format: ADME, organism-based; parameters: dosed compound name Ruboxistaurin
[10] = Drug recovery in po dosed rat bile; format: ADME, organism-based; parameters: dosed compound name Ruboxistaurin
[11] = test system: Plasma; experiment: Drug recovery in beagle dog plasma assessed as radiochemical peak area treated with 5 mg/kg, iv LY2090314 for 30 mins after 0.5 hrs by radio analysis; format: ADME, organism-based, Canis lupus familiaris; parameters: dose 5 mg/kg, dosed compound name [14C]LY2090314, route intravenous
[12] = test system: Plasma; experiment: Drug recovery in beagle dog plasma assessed as radiochemical peak area treated with 5 mg/kg, iv LY2090314 for 30 mins after 2 hrs by radio analysis; format: ADME, organism-based, Canis lupus familiaris; parameters: dose 5 mg/kg, dosed compound name [14C]LY2090314, route intravenous
[13] = Drug recovery in bile duct-intact beagle dog assessed as radioactivity in feces during 0 to 48 hrs treated with 5 mg/kg, iv LY2090314 for 30 mins; format: ADME, organism-based, Canis lupus familiaris; parameters: dose 5 mg/kg, dosed compound name [14C]LY2090314, route intravenous

SMILES: CN(C)C[C@@H]1CCn2cc(c3ccccc32)C2=C(C(=O)NC2=O)c2cn(c3ccccc23)CCO1 [RUBOXISTAURIN]
Radiolabel recovery [2]: 83% | Radiolabel recovery [3]: 83% | Radiolabel recovery [4]: 83% | Radiolabel recovery [5]: 83% | Radiolabel recovery [6]: <= 4% | Radiolabel recovery [7]: <= 4% | Radiolabel recovery [8]: <= 4% | Radiolabel recovery [9]: <= 4% | Radiolabel recovery [10]: 59%

SMILES: NC(=O)N1CCn2cc(C3=C(c4cnc5ccccn45)C(=O)NC3=O)c3cc(F)cc(c32)C1
Compound recovery [1]: 4.15% | Compound recovery [11]: 0.1% | Compound recovery [12]: 0%

SMILES: O=C1NC(=O)C(c2c[n+](O[C@@H]3O[C@H](C(=O)O)[C@@H](O)[C@H](O)[C@H]3O)c3ccccn23)=C1c1cn2c3c(cc(F)cc13)CN(C(=O)N1CCCCC1)CC2
Compound recovery [13]: 5.42% | Compound recovery [11]: 12.66% | Compound recovery [12]: 18.81%

Further lines, results first:

Compound recovery [1]: 6.76%
SMILES: O=C(CCNC(=O)N1CCn2cc(C3=C(c4cnc5ccccn45)C(=O)NC3=O)c3cc(F)cc(c32)C1)NCCS(=O)(=O)O

Compound recovery [1]: 0%
SMILES: O=C(O)CCNC(=O)N1CCn2cc(C3=C(c4cnc5ccccn45)C(=O)NC3=O)c3cc(F)cc(c32)C1
